Test results from patent US20250381210A1, “METHODS OF TREATING VASCULAR DEMENTIA” (The Regents of the University of California, priority 2024, published 2025).

What was measured:
[1] = tested on: A3AR; conditions: cited from earlier work
[2] = tested on: VaD mouse model; assay: Delayed piclidenoson (5 days after VaD induction); lesion size, axon and myelin volume by immunostaining; format: in vivo; conditions: delayed treatment from 5 days after VaD induction, vs vehicle; for VaD lesion size: examined 3 weeks after treatment
Experimental: (§1) VaD in the mouse was modified from white matter stroke model. Briefly, the mice were anesthetized with 2% isoflurane and securely mounted onto a stereotaxic apparatus. Core body temperature of the mice was maintained at 36.5 to 37.5° C. A midline incision was made down the scalp, and a craniotomy was performed with a dental drill. A Nanoliter injector (World Precision Instruments) was used to infuse 27 μg/μL of L-NIO (Sigma-Aldrich, 400-600) in sterile saline (Hospira) with Micro4 Controller injector (World Precision Instruments), at the speed of 100 nL/min. To avoid damage to motor cortex, the glass pipette (Wrld Precision Instruments, 1B100F-4) containing the L-NIO was inserted through the cortex of the frontal lobe into the underlying subcortical WM at an angle of 36°. Three injections (each of 0.3 μL of L-NIO solution) were made in the following coordinates: AP +0.80 mm, ML +2.00 mm, DV −1.56 mm; AP +0.80 mm, ML +2.83 mm, DV −1.60 mm; and AP +0.80 mm, ML +3.66 mm, DV −1.61 mm. Localized vasoconstriction leads to focal ischemia in the subcortical WM. Female mice were excluded because estrogen is potentially preventative against ischemic stroke.
(§2) Immunostaining was performed by brain section blocking in 5% normal donkey serum for 1 hour at room temperature, incubating in primary antibody overnight at 4° C., and in secondary antibody for 1 hour at room temperature. For the performance using CD39 and Pdgfrβ antibodies, antigen retrieval using sodium citrate buffer ([…], pH 6.0), in pressure cooker for 3 min was applied before blocking. All sections were counterstained with 4′,6-diamidino-2-phenylindole (DAPI). The antibodies used in this study are listed below.
(§3) High-resolution confocal images in z-stacks were acquired (Nikon C2). Area measurements of the infarct core, WM axonal projections stained with NF160 and MBP were quantified with Imaris (Bitplane, version 10.0.0) using surface function; all the channels were threshold with the same absolute intensity against the background. The parameters for scanning were kept constant across treatment, and conditions.
(§4) • 1. Quantification of MBP and NF160 volume for FIGS. 26I, 28M, 28N. Imaris (Bitplane, version 10.0.0) using surface function; all the channels were threshold with the same absolute intensity against the background. Because the absolute volume of cerebral white matter varies between coronal slices depending on the coordinate along anterior-posterior axis, it is difficult to directly compare the absolute volume of NF160 or MBP between groups. The volume of ipsilateral white matter is very similar to the contralateral white matter, we first normalized the volume of NF160 or MBP at the ipsilateral side to the contralateral side (no lesion), and then compare the normalized value between groups. This may be a more reasonable way to investigate how the axon reprojection and myelin regrowth is changed by piclidenoson (CF101) treatment. For each animal, 4 slices, with 300 μm interval across the lesion core along the anterior-posterior axis, were quantified. • 2. Quantification of absolute core sizes (FIG. 16F). For each animal, all the slices that cover the lesion core were stained with MBP, NF160, DAPI, and GFAP. The area of core is defined as brain region with NF160/MBP debris, high density of DAPI, and GFAP boundary. The size of core area is measured in ImageJ. The absolute core size is defined by the sum of core area×the slice thickness from all slices. • 3. Quantification of relative core sizes (FIG. 28I, 28L). For each animal, 4 slices, with 300 μm interval across the lesion core along the anterior-posterior axis, were quantified using ImageJ. The relative core sizes were normalized by the average of vehicle treated group. • 4. Quantification of c-Fos cells (FIG. 16R, 16S, 28Q, 28R). For slices from prefrontal cortex, the number of c-Fos cells were quantified by Imaris using spots function, and normalized with the number of neurons (NeuN+) in the same region of interest (ROI). […]

[3] = tested on: VaD mouse model; assay: c-Fos quantification in PFC (AC) and HPC (CA2/3) after delayed piclidenoson treatment; format: in vivo; conditions: VaD animals
Experimental: as §1, §2
as §4, with “(ROI). For slices from hippocampus, the number of c-Fos cells were quantified by Imaris and normalized with the volume of ROI because it is difficult to normalize with the number of neurons due to compact pyramidal cell layer. The same quality threshold was used for all samples. • 5. Quantification of CD39 in human IHC (FIG. 28D, 28E).” for “(ROI).”

[4] = recent phase III clinical trials for psoriasis; cited from earlier work
[5] = tested on: VaD mouse model; assay: Novel Object Recognition (NOR) test after delayed piclidenoson treatment; format: in vivo; conditions: delayed treatment from 5 days after VaD induction, legend: one sample paired t test compared to 50%
Experimental: VaD in the mouse was modified from white matter stroke model. Briefly, the mice were anesthetized with 2% isoflurane and securely mounted onto a stereotaxic apparatus. Core body temperature of the mice was maintained at 36.5 to 37.5° C. A midline incision was made down the scalp, and a craniotomy was performed with a dental drill. A Nanoliter injector (World Precision Instruments) was used to infuse 27 μg/μL of L-NIO (Sigma-Aldrich, 400-600) in sterile saline (Hospira) with Micro4 Controller injector (World Precision Instruments), at the speed of 100 nL/min. To avoid damage to motor cortex, the glass pipette (Wrld Precision Instruments, 1B100F-4) containing the L-NIO was inserted through the cortex of the frontal lobe into the underlying subcortical WM at an angle of 36°. Three injections (each of 0.3 μL of L-NIO solution) were made in the following coordinates: AP +0.80 mm, ML +2.00 mm, DV −1.56 mm; AP +0.80 mm, ML +2.83 mm, DV −1.60 mm; and AP +0.80 mm, ML +3.66 mm, DV −1.61 mm. Localized vasoconstriction leads to focal ischemia in the subcortical WM. […] Osmotic mini-pumps (1002, 1004) were subcutaneously implanted and connected to right lateral ventricle through brain infusion kit 3 (Alzet). The brain infusion kits were fixed onto the skull with super glue (Loctite, 45198). […] All tests were performed 3-4 weeks after VaD. […] For NOR, the testing mice were allowed to explore an open field arena (30 cm×30 cm) with 2 identical objects for 12 min on the first day. Then the one object was replaced to a novel object and the mice were allowed to explore the 2 different objects for 8 min. The exploration was recorded and the time to explore each object was analyzed by ANY-maze. The data were presented as exploration ratio of time spent exploring the novel object versus both objects. For NOR, mice were habituated in an open field arena (41.5 cm×41.5 cm×41.5 cm) for 10 min. […] The exploration was recorded and the time to explore each object was analyzed by ANY-maze, and/or manually hand-scored. […]

[6] = tested on: VaD mouse model; assay: Satb2 and Cux1 immunostaining in cortical Layer VI after delayed piclidenoson treatment; format: in vivo; conditions: motor somatosensory cortex
Experimental: as §1, §2
as §4, with “(ROI). For slices from hippocampus, the number of c-Fos cells were quantified by Imaris and normalized with the volume of ROI because it is difficult to normalize with the number of neurons due to compact pyramidal cell layer. The same quality threshold was used for all samples. • 5. Quantification of CD39 in human IHC (FIG. 28D, 28E).” for “(ROI).”

[7] = tested on: VaD mouse model; assay: Acute piclidenoson, infusion into lateral ventricle 30-min after VaD induction; lesion size and BBB leakage by immunostaining; format: in vivo; conditions: acute administration 30-min post stroke, for 1-2 weeks, direct infusion into lateral ventricle, vs vehicle
Experimental: as §1, §2
as §3, with “The parameters for scanning were kept constant across treatment, and conditions.” left out
• 1. Quantification of MBP and NF160 volume for FIGS. 26I, 28M, 28N. […] For each animal, 4 slices, with 300 μm interval across the lesion core along the anterior-posterior axis, were quantified. • 2. Quantification of absolute core sizes (FIG. 16F). […] The size of core area is measured in ImageJ. […] Quantification of relative core sizes (FIG. 28I, 28L). For each animal, 4 slices, with 300 μm interval across the lesion core along the anterior-posterior axis, were quantified using ImageJ. […] Quantification of c-Fos cells (FIG. 16R, 16S, 28Q, 28R). For slices from prefrontal cortex, the number of c-Fos cells were quantified by Imaris using spots function, and normalized with the number of neurons (NeuN+) in the same region of interest (ROI). […]

[8] = tested on: VaD mouse model; assay: Grid walking task after delayed piclidenoson treatment; format: in vivo; conditions: three weeks post piclidenoson treatment
Experimental: as §1, with “stroke. Osmotic mini-pumps (1002, 1004) were subcutaneously implanted and connected to right lateral ventricle through brain infusion kit 3 (Alzet). The brain infusion kits were fixed onto the skull with super glue (Loctite, 45198). For 4-week treatment, 1004 mini-pumps were used to delivery 400 µM of piclidenoson (in 1% DMSO in saline) at the speed of 0.11 μL/h; For 2-week treatment, 1002 mini-pumps were used to deliver 200 μM of piclidenoson at the speed of 0.23 μL/h. For Grid walking test, the mice were tested 1-day pre-, 7-day, 30-day, and 60-day post-VaD in progressiveness investigation, and 1-day pre-, 4-day and 21-day post-VaD in piclidenoson treatment study. Behavior tests were scored by observers who were masked to the treatment group of the animals.” for “stroke.”

## CNC(=O)[C@H]1O[C@@H](n2cnc3c(NCc4cccc(I)c4)ncnc32)[C@H](O)[C@@H]1O [piclidenoson, 1-deoxy-1-[6-[(iodophenyl)methyl]amino]9H-purine-9-yl]-N-methyl-(-D-ribofuranuronamide]
[1]; A3AR vs A1AR and A2bAR
  potency in A3AR action relative to A1AR and A2bAR: 50 fold
[1]
  non-specific effects on other adenosine receptors: minimal non-specific effects on other adenosine receptors
[2]
  VaD lesion size: significant reduction of lesion size
  axon volume / axonal projections (NF160 immunostaining): not changed
  myelin volume / markers of myelination (MBP immunostaining) in affected WM: significantly increased
[2]; listed as CF101
  VaD lesion size: significant reduction of lesion size
  axon volume / axonal projections (NF160 immunostaining): not changed
  myelin volume / markers of myelination (MBP immunostaining) in affected WM: significantly increased
[2]; listed as Pic
  VaD lesion size: Veh vs Pic, *p<0.05
  axon volume / axonal projections (NF160 immunostaining): Veh vs Pic, n.s.=not significant
  myelin volume / markers of myelination (MBP immunostaining) in affected WM: Veh vs Pic, *p<0.05
[3]
  c-Fos expression in HPC CA2/3, c-Fos+ cell numbers per mm^3: restored c-Fos expression
  c-Fos expression in PFC anterior cingulate (AC), c-Fos/NeuN (%): restored c-Fos expression
[3]; listed as CF101
  c-Fos expression in HPC CA2/3, c-Fos+ cell numbers per mm^3: restored c-Fos expression
  c-Fos expression in PFC anterior cingulate (AC), c-Fos/NeuN (%): restored c-Fos expression
[3]; listed as Pic
  c-Fos expression in HPC CA2/3, c-Fos+ cell numbers per mm^3: Con_Veh vs VaD_Pic, n.s.=not significant
  c-Fos expression in PFC anterior cingulate (AC), c-Fos/NeuN (%): Con_Veh vs VaD_Pic, n.s.=not significant
[4]
  safety in humans: safely used in humans
[5]
  NOR memory test, memory deficits (novel object preference): significantly reduced memory deficits
[5]; listed as CF101
  NOR memory test, memory deficits (novel object preference): significantly reduced memory deficits
[5]; listed as Pic
  NOR memory test, memory deficits (novel object preference): Con_Veh, Con_Pic, and VaD_Pic groups, *p<0.05
[6]
  Cux1 expression, Cux1+/NeuN (%) in Layer VI above infarct lesion: significantly ameliorated
  Satb2 expression, Satb2+/NeuN (%) in Layer VI near infarct lesion: significantly ameliorated
[6]; listed as CD101
  Satb2 expression, Satb2+/NeuN (%) in Layer VI near infarct lesion: VaD_Veh vs VaD_CD101, *p<0.05
[6]; listed as CF101
  Cux1 expression, Cux1+/NeuN (%) in Layer VI above infarct lesion: significantly ameliorated
  Satb2 expression, Satb2+/NeuN (%) in Layer VI near infarct lesion: significantly ameliorated
[6]; listed as Pic
  Cux1 expression, Cux1+/NeuN (%) in Layer VI above infarct lesion: Con_Veh vs VaD_Pic, n.s.=not significant
  Satb2 expression, Satb2+/NeuN (%) in Layer VI near infarct lesion: Con_Veh vs VaD_Pic, n.s.=not significant
[7]
  VaD lesion size: may reduce lesion size
  blood brain barrier (BBB) leakage (immunoreactivity of mouse IgG): significantly reduced blood brain barrier (BBB) leakage
[7]; listed as CF101
  blood brain barrier (BBB) leakage (immunoreactivity of mouse IgG): reduced blood brain barrier (BBB) leakage
[7]; listed as Pic
  blood brain barrier (BBB) leakage (immunoreactivity of mouse IgG): Veh vs Pic, *p<0.05
[8]
  grid walking task, motor deficit: successfully rescued the motor deficit
[8]; listed as CF101
  grid walking task, motor deficit: successfully rescued the motor deficit
[8]; listed as Pic
  grid walking task, motor deficit: VaD_Veh vs VaD_Pic, ##p<0.01
